{"source": "patent US20240271180A1", "about": "“METHOD FOR DETECTING CONTAMINATING LIPASE ACTIVITY” (BOEHRINGER INGELHEIM INTERNATIONAL GMBH, priority 2020, published 2024)", "key": {"[1]": {"test": "Auto-hydrolysis of 4-MU esters", "assay_type": "physicochemical", "conditions": "30 μM, AMT assay buffer, 10 mM CHAPS, pH 5.5, 1800 seconds; compared to e.g. butyrate (4-MUB)"}, "[2]": {"tested_on": "lipase activity in drug substance samples (Product G, B, F) and UF/DF sample of Product D", "test": "4-MUD lipase assay with or without CHAPS", "assay_type": "biochemical", "conditions": "10 mM CHAPS (above CMC) vs without, 30 μM 4-MUD, pH 5.5", "protocol": "First, a surfactant was tested above its CMC (critical micelle concentration). Therefore 10 mM CHAPS were added to the assay. […] The samples tested were drug substance samples comprising Product G, Product B, Product F and a sample following ultrafiltration/diafiltration of Product D, each added at 72 μL per well. […] Without being bound by theory it is hypothesized that a surfactant creates an environment that promotes lipase activity by allowing the rearrangement and opening of the lid or flap, which has been described to cover the active site (Grochulski P, Li Y, Schrag J D, et al. Protein Sci 1994; 3:82-91 and Grochulski P, Bouthillier F, Kazlauskas R J, et al. Biochemistry 1994; 33:3494-500). Therefore, a concentration of 10 mM CHAPS in the final reaction-mix was selected."}, "[3]": {"tested_on": "hydrolytic activity of PPL and in BDS B and BDS E", "test": "Comparison of surfactants in 4-MUD lipase assay", "assay_type": "biochemical", "conditions": "10 mM CHAPS vs 0.25% Triton X-100 vs 0.25% Triton X-100 and 0.125% gum arabicum, pH 5.5", "protocol": "Therefore, hydrolytic activity of PPL (0.024 mg/ml in the reaction mixture) and in BDS B and BDS E (2.4 mg/ml in the reaction mixture) was measured in ATM buffer, pH 5.5, with either 10 mM CHAPS, 0.25% Triton X-100 or 0.25% Triton X-100 and 0.125% gum arabicum. […] Gum arabicum is an emulsifier and no effect of gum arabicum on the activity has been observed in any of the experiments."}, "[4]": {"conditions": "derivable from literature; cited from earlier work"}, "[5]": {"tested_on": "hydrolytic activity of an exemplary drug product sample", "conditions": "NaCl 7.8125-1000 mM, 30 μM 4-MUD, AMT buffer without NaCl, pH 5.5", "experimental": "Therefore, the influence of the ionic strength on the measured hydrolytic activity was tested. Hydrolytic activity of an exemplary drug product sample was measured in the presence of varying concentrations of NaCl (1000 mM-7.8125 mM)."}, "[6]": {"tested_on": "hydrolytic activity of a drug product sample (Product D)", "test": "4-MUD lipase assay with Orlistat", "assay_type": "biochemical", "conditions": "Orlistat 7.3 nM-20 μM, 30 μM 4-MUD, AMT buffer pH 5.5"}, "[7]": {"tested_on": "hydrolytic activity responsible for polysorbate degradation in a drug product sample (Product D)", "test": "PS20 degradation in drug product, HPLC-CAD", "conditions": "1 μM Orlistat, 0.2 mg/mL PS20, RT, pH 5.5, up to 56 days, vs control (DMSO only)"}, "[8]": {"target": "T1, PPL (Sus scrofa, UniProt P00591)", "T1 sequence (P00591 1-450)": "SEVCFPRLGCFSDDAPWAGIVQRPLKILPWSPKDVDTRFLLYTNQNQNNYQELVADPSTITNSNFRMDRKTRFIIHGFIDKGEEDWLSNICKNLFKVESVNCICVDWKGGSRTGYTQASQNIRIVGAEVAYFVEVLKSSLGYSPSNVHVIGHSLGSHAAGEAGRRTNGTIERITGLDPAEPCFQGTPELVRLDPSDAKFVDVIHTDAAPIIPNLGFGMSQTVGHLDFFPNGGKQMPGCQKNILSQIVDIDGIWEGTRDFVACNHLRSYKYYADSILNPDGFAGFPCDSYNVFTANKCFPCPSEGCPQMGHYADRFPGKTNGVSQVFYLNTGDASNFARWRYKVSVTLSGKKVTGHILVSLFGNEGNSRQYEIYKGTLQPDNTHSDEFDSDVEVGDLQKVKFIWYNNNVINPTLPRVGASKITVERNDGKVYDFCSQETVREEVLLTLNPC", "conditions": "Jahn et al.; cited from earlier work"}}}
{"compound": "CCCCCCCCCC(=O)Oc1ccc2c(C)cc(=O)oc2c1", "note": "[4-MUD, 4-methylumbelliferyl decanoate]", "values": [{"measurement": "auto-hydrolysis", "setting": "[1]", "result": "better resistance to auto-hydrolysis"}]}
{"compound": "C[C@H](CCC(=O)NCCC[N+](C)(C)CCCS(=O)(=O)[O-])[C@H]1CC[C@H]2[C@@H]3[C@H](O)C[C@@H]4C[C@H](O)CC[C@]4(C)[C@H]3C[C@H](O)[C@]12C", "note": "[CHAPS, 3-[(3-cholamidopropyl)dimethylammonio]-1-propanesulfonate]", "values": [{"measurement": "effect on lipase hydrolysis", "setting": "[2]", "result": "lipase hydrolysis was increased"}, {"measurement": "hydrolytic activity compared between surfactants", "setting": "[3]", "result": "outperforms Triton X-100 and Triton X-100 and gum arabicum"}, {"measurement": "critical micelle concentration (CMC)", "setting": "[4]", "result": "about 6 mM"}]}
{"compound": "C[C@H](CCC(=O)NCCC[N+](C)(C)CC(O)CS(=O)(=O)[O-])[C@H]1CC[C@H]2[C@@H]3[C@H](O)C[C@@H]4C[C@H](O)CC[C@]4(C)[C@H]3C[C@H](O)[C@]12C", "note": "(stereo partly shown) [CHAPSO, 3-([3-Cholamidopropyl)dimethylammonio]-2-hydroxy-1-propanesulfonate]", "values": [{"measurement": "critical micelle concentration (CMC)", "setting": "[4]", "result": "about 8 mM"}]}
{"compound": "[Cl-].[Na+]", "note": "[NaCl]", "values": [{"measurement": "NaCl concentration at which lipase activity decreased", "setting": "[5]", "result": "≥ 250", "unit": "mM"}]}
{"compound": "CCCCCCCCCCC[C@@H](C[C@@H]1OC(=O)[C@H]1CCCCCC)OC(=O)[C@H](CC(C)C)NC=O", "note": "[Orlistat]", "values": [{"measurement": "inhibition of lipase activity", "setting": "[6]", "result": "inhibited lipase activity in a concentration dependent manner"}, {"measurement": "degradation of PS20", "setting": "[7]", "result": "reduced degradation of PS20"}]}
{"compound": "CCCCCCCCCCCC[N+](C)(C)CCCS(=O)(=O)[O-]", "note": "[Zwittergent 3-12, n-Dodecyl-N,N-dimethyl-3-ammonio-1-propanesulfonate]", "values": [{"measurement": "critical micelle concentration (CMC)", "setting": "[4]", "result": "2 to 4", "unit": "mM"}]}
{"compound": "polyethylene glycol tert-octylphenyl ether [Triton X-100]", "values": [{"measurement": "effect on PPL activity", "setting": "[8]", "result": "de-activating effect"}]}
